Results: patent publication US6812232B2, “Heterocycle substituted purine derivatives as potent antiproliferative agents” (AMR Technology, Inc., priority 2001, dated 2004)
Where “and” joins values, the source holds several entries; their conditions need not be identical. Equal entries are not always repeated.

Legend:
CyclinB/cdk1 = target: T1, CyclinB/cdk1 (Homo sapiens, UniProt P06493); experiment: CyclinB/cdk1 protein kinase assay (histone H1 phosphorylation); type: biochemical; settings: Table 2; complexes isolated from HeLa cells, histone H1, 15 μM ATP; replicate experimental results; read-out: IC50 CyclinB/cdkl
T1 construct: Monoclonal antibody against cyclinB (GNS1) is added to the supernatant; endogenous in cells

HeLa S-3 cells = experiment: Inhibition of cell growth (SRB), HeLa; type: cell-based, human; settings: Table 2, 2 days of treatment, replicate experimental results
Method: D. Measuring the Inhibition of Cell Growth.
Growth inhibition (GI50) values were measured with HeLa S-3 cells selected for growth on plastic. […] One day later, a control plate was fixed by addition of TCA to 5%. After five rinses with tap water the plate was air dried and stored at 4° C. Test compounds were added to the remaining plates at 10-fold dilutions between 0.01 and 100 μM. Two days later all plates were fixed as described above. Cells were then stained by the addition of 100 […] of 0.4% sulforhodamine B (SRB) in 1% acetic acid for 30 min at 4° C. Wells were then quickly rinsed 5× with acetic acid (1%) and allowed to air dry. The SRB was then solubilized by the addition of 100 μl per well of unbuffered 10 mM Tris base. Dye was quantified by measuring absorbance at 490 nm on a Molecular Devices kinetic microplate reader. Growth at each inhibitor concentration relative to the untreated control was calculated according to the following equation: percent growth=100×(T−To)/(C−To), where T was the average optical density (OD) of the test wells after 2 days of treatment, To was the average OD of the wells in the control plate on day 0 and C was the average OD of untreated wells. Plots of percent growth versus inhibitor concentration were used to determine the GI50.

T1 sequence (P06493 whole entry): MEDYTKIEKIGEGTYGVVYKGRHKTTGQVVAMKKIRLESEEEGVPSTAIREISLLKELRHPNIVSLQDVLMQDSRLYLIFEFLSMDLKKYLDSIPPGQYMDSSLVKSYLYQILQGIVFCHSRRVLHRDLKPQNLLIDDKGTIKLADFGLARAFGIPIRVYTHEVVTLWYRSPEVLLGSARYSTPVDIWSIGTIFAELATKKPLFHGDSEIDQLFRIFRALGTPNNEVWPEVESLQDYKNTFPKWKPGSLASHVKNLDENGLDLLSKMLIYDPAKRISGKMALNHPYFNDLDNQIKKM
T1 sequence (P14635 whole entry partner): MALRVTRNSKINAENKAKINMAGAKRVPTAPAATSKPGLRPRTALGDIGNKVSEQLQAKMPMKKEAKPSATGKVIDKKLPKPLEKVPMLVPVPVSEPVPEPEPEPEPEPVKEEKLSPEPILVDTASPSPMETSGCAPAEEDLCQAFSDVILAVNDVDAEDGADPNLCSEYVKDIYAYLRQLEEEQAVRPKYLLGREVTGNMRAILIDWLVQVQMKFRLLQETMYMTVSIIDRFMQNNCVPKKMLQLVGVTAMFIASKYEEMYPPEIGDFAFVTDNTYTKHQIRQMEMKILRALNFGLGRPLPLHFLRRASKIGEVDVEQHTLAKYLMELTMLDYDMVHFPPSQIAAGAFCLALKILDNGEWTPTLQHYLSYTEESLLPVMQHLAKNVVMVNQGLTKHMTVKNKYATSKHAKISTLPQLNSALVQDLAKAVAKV

Row | GI50 (HeLa S-3 cells) | melting point | Structure (SMILES) | other results
1 | – | – | CC[C@H](CO)Nc1nc(NCc2ccc(-c3cccc([N+](=O)[O-])c3)cc2)c2ncn(C(C)C)c2n1 [Compound 48] | IC50 (CyclinB/cdk1): > 10000 nM
2 | > 10000 nM | – | CC(C)n1cnc2c(NCc3ccc(-c4ccsc4)cc3)nc(N[C@H]3CC[C@H](NC(=O)OC(C)(C)C)CC3)nc21 [Compound 130] | –
3 | 2000 nM | 211 to 216 °C | CC(C)n1cnc2c(NCc3cccc(-c4ccsc4)c3)nc(N[C@H]3CC[C@H](N)CC3)nc21 [Compound 131] | GI50 (HeLa S-3 cells; Homo sapiens, HeLa S3, 48 h): 3000 nM
4 | 3000 nM | 209 to 211 °C | CC(=O)N[C@H]1CC[C@H](Nc2nc(NCc3cccc(-c4ccsc4)c3)c3ncn(C(C)C)c3n2)CC1 [Compound 132] | GI50 (HeLa S-3 cells; Homo sapiens, HeLa S3, 48 h): 4000 nM
5 | > 10000 nM | – | CC(C)n1cnc2c(NCc3ccc(-c4ccccc4)cc3)nc(N[C@H]3CC[C@H](NC(=O)OC(C)(C)C)CC3)nc21 [Compound 133] | –
6 | 400 nM and 200 nM | – | CC(=O)NC1CCC(Nc2nc(NCc3ccc(-c4cccc(C)c4)cc3)c3ncn(C(C)C)c3n2)CC1 (centres unmarked) [Compound 178] | –
7 | 400 nM and 300 nM | – | COc1cccc(-c2ccc(CNc3nc(NC4CCC(NC(C)=O)CC4)nc4c3ncn4C(C)C)cc2)c1 (centres unmarked) [Compound 180] | –
8 | – | 199 to 230 °C | CC(=O)N[C@H]1CC[C@H](Nc2nc(NCc3ccc(-c4cccc(F)c4)nc3)c3ncn(C(C)C)c3n2)CC1 [Compound 188] | –
9 | – | 216 to 218 °C | CC(=O)N[C@H]1CC[C@H](Nc2nc(NCc3ccc(-c4ccco4)nc3)c3ncn(C(C)C)c3n2)CC1 [Compound 206] | –
10 | 4000 nM and 3000 nM | – | CC(=O)NCCNc1nc(NCc2ccc(-c3ccccc3)cc2)c2ncn(C(C)C)c2n1 [Compound 208] | –
11 | – | – | CC(C)n1cnc2c(NCc3ccc(-c4ccccc4)cn3)nc(N[C@H]3CC[C@H](N)CC3)nc21 [Compound 229] | GI50 (HeLa S-3 cells; Homo sapiens, HeLa S3, 48 h): 400 nM
12 | 300 nM and 400 nM and 700 nM | – | COC(=O)NC1CCC(Nc2nc(NCc3ccc(-c4ccccc4)cc3)c3ncn(C(C)C)c3n2)CC1 (centres unmarked) [Compound 259] | –
13 | 300 nM | – | CC(C)n1cnc2c(NCc3ccc(-c4ccccc4)cc3)nc(NC3CCC(NC(=O)C4CC4)CC3)nc21 (centres unmarked) [Compound 261] | –
